The source of these data is PubChem BioAssay AID2060508 (Molecular Pharmacology Branch, DTP, NCI, 2025).
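Note: spheroids exposed to compounds for seven days.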
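Throughout, for viability, T/C: 100% = DMSO vehicle control viability.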

The first assay concerns 454973-116-R2-J3-PDC spheroids, viability, % test/control. The experiment in a line: Anticancer human tumor 454973-116-R2-J3-PDC patient-derived pancreatic carcinoma cell line growth inhibition [GQUAD]. The settings on record: curve of first compound; second compound 0.0316 µM; spheroids with HUVEC and MSC. The method, boiled down: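 Multi-cell-type spheroids of tumor cells with HUVEC and mesenchymal stem cells, treated with drug combinations. Concentrations descend in half-log steps from near clinical Cmax, or from 10 microM where Cmax is unknown; viability read-out.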
Broadly, the IC50 is the point on the concentration scale where inhibition reaches its midpoint. Take `CC1COCCN1c1cc(-c2ccnn2C)c2ccnc(-c3ccn[nH]3)c2n1` (configuration not stated) + Cc1[nH]c2ccc(F)cc2c1-c1nc2c3cccnc3c3ncccc3c2[nH]1: the half-maximal inhibitory concentration (IC50) worked out at 162 nM.

In the case of `CC1COCCN1c1cc(C2(O)CC3CCC(C2)O3)c2cnn(-c3ccn[nH]3)c2n1` (configuration not stated) + Cc1[nH]c2ccc(F)cc2c1-c1nc2c3cccnc3c3ncccc3c2[nH]1, the IC50 was determined as 155 nM.

As to `CC1COCCN1c1cc(C2(S(C)(=N)=O)CC2)nc(-c2ccnc3[nH]ccc23)n1` (configuration not stated) + Cc1[nH]c2ccc(F)cc2c1-c1nc2c3cccnc3c3ncccc3c2[nH]1, the IC50 was 5870 nM.

In the case of `COc1ccc([C@@H](O)c2cc(-c3ncnc4cc(N5CCOCC5)ccc34)c(F)cc2Cl)nn1` + Cc1[nH]c2ccc(F)cc2c1-c1nc2c3cccnc3c3ncccc3c2[nH]1, the IC50 turned out to be 7420 nM.

The assay is the same for the next values; noted with them: curve of first compound; second compound 0.1 µM; spheroids with HUVEC and MSC.
As for `CC1COCCN1c1cc(-c2ccnn2C)c2ccnc(-c3ccn[nH]3)c2n1` (configuration not stated) + Cc1[nH]c2ccc(F)cc2c1-c1nc2c3cccnc3c3ncccc3c2[nH]1, the concentration for half-maximal inhibition (IC50) was 171 nM.

Turning to `CC1COCCN1c1cc(C2(O)CC3CCC(C2)O3)c2cnn(-c3ccn[nH]3)c2n1` (configuration not stated) + Cc1[nH]c2ccc(F)cc2c1-c1nc2c3cccnc3c3ncccc3c2[nH]1, the IC50 was determined as 141 nM.

For `CC1COCCN1c1cc(C2(S(C)(=N)=O)CC2)nc(-c2ccnc3[nH]ccc23)n1` (configuration not stated) + Cc1[nH]c2ccc(F)cc2c1-c1nc2c3cccnc3c3ncccc3c2[nH]1, the half-maximal inhibitory concentration (IC50) was determined as 5360 nM.

In the case of `COc1ccc([C@@H](O)c2cc(-c3ncnc4cc(N5CCOCC5)ccc34)c(F)cc2Cl)nn1` + Cc1[nH]c2ccc(F)cc2c1-c1nc2c3cccnc3c3ncccc3c2[nH]1, the concentration for half-maximal inhibition (IC50) is more than 10000 nM.

The same assay, now with this note: curve of first compound; second compound 0.316 µM; spheroids with HUVEC and MSC.
For `CC1COCCN1c1cc(-c2ccnn2C)c2ccnc(-c3ccn[nH]3)c2n1` (configuration not stated) + Cc1[nH]c2ccc(F)cc2c1-c1nc2c3cccnc3c3ncccc3c2[nH]1, the IC50 amounted to 168 nM.

Regarding `CC1COCCN1c1cc(C2(O)CC3CCC(C2)O3)c2cnn(-c3ccn[nH]3)c2n1` (configuration not stated) + Cc1[nH]c2ccc(F)cc2c1-c1nc2c3cccnc3c3ncccc3c2[nH]1, the IC50 is 163 nM.

With `CC1COCCN1c1cc(C2(S(C)(=N)=O)CC2)nc(-c2ccnc3[nH]ccc23)n1` (configuration not stated) + Cc1[nH]c2ccc(F)cc2c1-c1nc2c3cccnc3c3ncccc3c2[nH]1, the IC50 is 5070 nM.

Turning to `COc1ccc([C@@H](O)c2cc(-c3ncnc4cc(N5CCOCC5)ccc34)c(F)cc2Cl)nn1` + Cc1[nH]c2ccc(F)cc2c1-c1nc2c3cccnc3c3ncccc3c2[nH]1, the IC50 is more than 10000 nM.

The same assay, now with this note: curve of first compound; second compound 1 µM; spheroids with HUVEC and MSC.
As to `CC1COCCN1c1cc(-c2ccnn2C)c2ccnc(-c3ccn[nH]3)c2n1` (configuration not stated) + Cc1[nH]c2ccc(F)cc2c1-c1nc2c3cccnc3c3ncccc3c2[nH]1, the IC50 turned out to be 158 nM.

`CC1COCCN1c1cc(C2(O)CC3CCC(C2)O3)c2cnn(-c3ccn[nH]3)c2n1` (configuration not stated) + Cc1[nH]c2ccc(F)cc2c1-c1nc2c3cccnc3c3ncccc3c2[nH]1: the concentration for half-maximal inhibition (IC50) was determined as 140 nM.

In the case of `CC1COCCN1c1cc(C2(S(C)(=N)=O)CC2)nc(-c2ccnc3[nH]ccc23)n1` (configuration not stated) + Cc1[nH]c2ccc(F)cc2c1-c1nc2c3cccnc3c3ncccc3c2[nH]1, the 50% inhibitory concentration (IC50) stood at 6490 nM.

For the compound `COc1ccc([C@@H](O)c2cc(-c3ncnc4cc(N5CCOCC5)ccc34)c(F)cc2Cl)nn1` + Cc1[nH]c2ccc(F)cc2c1-c1nc2c3cccnc3c3ncccc3c2[nH]1, the IC50 came out at 9540 nM.

The same assay, now with this note: curve of first compound; second compound 3.16 µM; spheroids with HUVEC and MSC.
Take `CC1COCCN1c1cc(-c2ccnn2C)c2ccnc(-c3ccn[nH]3)c2n1` (configuration not stated) + Cc1[nH]c2ccc(F)cc2c1-c1nc2c3cccnc3c3ncccc3c2[nH]1: the IC50 was found to be 116 nM.

Take `CC1COCCN1c1cc(C2(O)CC3CCC(C2)O3)c2cnn(-c3ccn[nH]3)c2n1` (configuration not stated) + Cc1[nH]c2ccc(F)cc2c1-c1nc2c3cccnc3c3ncccc3c2[nH]1: the IC50 worked out at 143 nM.

For `CC1COCCN1c1cc(C2(S(C)(=N)=O)CC2)nc(-c2ccnc3[nH]ccc23)n1` (configuration not stated) + Cc1[nH]c2ccc(F)cc2c1-c1nc2c3cccnc3c3ncccc3c2[nH]1, the half-inhibitory concentration (IC50) stood at 4680 nM.

For `COc1ccc([C@@H](O)c2cc(-c3ncnc4cc(N5CCOCC5)ccc34)c(F)cc2Cl)nn1` + Cc1[nH]c2ccc(F)cc2c1-c1nc2c3cccnc3c3ncccc3c2[nH]1, the concentration for half-maximal inhibition (IC50) is more than 10000 nM.

Still in this assay, the particulars now being: curve of first compound; second compound 10 µM; spheroids with HUVEC and MSC.
`CC1COCCN1c1cc(-c2ccnn2C)c2ccnc(-c3ccn[nH]3)c2n1` (configuration not stated) + Cc1[nH]c2ccc(F)cc2c1-c1nc2c3cccnc3c3ncccc3c2[nH]1: the IC50 amounted to 117 nM.

For the compound `CC1COCCN1c1cc(C2(O)CC3CCC(C2)O3)c2cnn(-c3ccn[nH]3)c2n1` (configuration not stated) + Cc1[nH]c2ccc(F)cc2c1-c1nc2c3cccnc3c3ncccc3c2[nH]1, the half-maximal inhibitory concentration (IC50) was 115 nM.

On to `CC1COCCN1c1cc(C2(S(C)(=N)=O)CC2)nc(-c2ccnc3[nH]ccc23)n1` (configuration not stated) + Cc1[nH]c2ccc(F)cc2c1-c1nc2c3cccnc3c3ncccc3c2[nH]1, for which the concentration for half-maximal inhibition (IC50) is 3490 nM.

For `COc1ccc([C@@H](O)c2cc(-c3ncnc4cc(N5CCOCC5)ccc34)c(F)cc2Cl)nn1` + Cc1[nH]c2ccc(F)cc2c1-c1nc2c3cccnc3c3ncccc3c2[nH]1, the IC50 turned out to be 7100 nM.

Still in this assay, the particulars now being: second compound 0.0316 µM; first compound 0.0316 µM; stronger effect = lower value; spheroids with HUVEC and MSC.
The term viability, T/C denotes the ratio of treated to control. Consider `CC1COCCN1c1cc(-c2ccnn2C)c2ccnc(-c3ccn[nH]3)c2n1` (configuration not stated) + Cc1[nH]c2ccc(F)cc2c1-c1nc2c3cccnc3c3ncccc3c2[nH]1, for which the viability, T/C was 97.4%.

For the compound `CC1COCCN1c1cc(C2(O)CC3CCC(C2)O3)c2cnn(-c3ccn[nH]3)c2n1` (configuration not stated) + Cc1[nH]c2ccc(F)cc2c1-c1nc2c3cccnc3c3ncccc3c2[nH]1, the viability, T/C was 95.9%.

In the case of `CC1COCCN1c1cc(C2(S(C)(=N)=O)CC2)nc(-c2ccnc3[nH]ccc23)n1` (configuration not stated) + Cc1[nH]c2ccc(F)cc2c1-c1nc2c3cccnc3c3ncccc3c2[nH]1, the viability, T/C was 101%.

For `COc1ccc([C@@H](O)c2cc(-c3ncnc4cc(N5CCOCC5)ccc34)c(F)cc2Cl)nn1` + Cc1[nH]c2ccc(F)cc2c1-c1nc2c3cccnc3c3ncccc3c2[nH]1, the viability, T/C is 120%.

The assay is the same for the next values; noted with them: second compound 0.0316 µM; first compound 0.1 µM; stronger effect = lower value; spheroids with HUVEC and MSC.
With `CC1COCCN1c1cc(-c2ccnn2C)c2ccnc(-c3ccn[nH]3)c2n1` (configuration not stated) + Cc1[nH]c2ccc(F)cc2c1-c1nc2c3cccnc3c3ncccc3c2[nH]1, the viability, T/C was 66.8%.

Take `CC1COCCN1c1cc(C2(O)CC3CCC(C2)O3)c2cnn(-c3ccn[nH]3)c2n1` (configuration not stated) + Cc1[nH]c2ccc(F)cc2c1-c1nc2c3cccnc3c3ncccc3c2[nH]1: the viability, T/C is 62.1%.

`CC1COCCN1c1cc(C2(S(C)(=N)=O)CC2)nc(-c2ccnc3[nH]ccc23)n1` (configuration not stated) + Cc1[nH]c2ccc(F)cc2c1-c1nc2c3cccnc3c3ncccc3c2[nH]1: the viability, T/C is 102%.

For `COc1ccc([C@@H](O)c2cc(-c3ncnc4cc(N5CCOCC5)ccc34)c(F)cc2Cl)nn1` + Cc1[nH]c2ccc(F)cc2c1-c1nc2c3cccnc3c3ncccc3c2[nH]1, the viability, T/C was 101%.

Still in this assay, the particulars now being: second compound 0.0316 µM; first compound 0.316 µM; stronger effect = lower value; spheroids with HUVEC and MSC.
Turning to `CC1COCCN1c1cc(-c2ccnn2C)c2ccnc(-c3ccn[nH]3)c2n1` (configuration not stated) + Cc1[nH]c2ccc(F)cc2c1-c1nc2c3cccnc3c3ncccc3c2[nH]1, the viability, T/C was 26.6%.

Consider `CC1COCCN1c1cc(C2(O)CC3CCC(C2)O3)c2cnn(-c3ccn[nH]3)c2n1` (configuration not stated) + Cc1[nH]c2ccc(F)cc2c1-c1nc2c3cccnc3c3ncccc3c2[nH]1, for which the viability, T/C is 29.9%.

As to `CC1COCCN1c1cc(C2(S(C)(=N)=O)CC2)nc(-c2ccnc3[nH]ccc23)n1` (configuration not stated) + Cc1[nH]c2ccc(F)cc2c1-c1nc2c3cccnc3c3ncccc3c2[nH]1, the viability, T/C is 121%.

Turning to `COc1ccc([C@@H](O)c2cc(-c3ncnc4cc(N5CCOCC5)ccc34)c(F)cc2Cl)nn1` + Cc1[nH]c2ccc(F)cc2c1-c1nc2c3cccnc3c3ncccc3c2[nH]1, the viability, T/C was 106%.

Staying with this assay, now noted: second compound 0.0316 µM; first compound 1 µM; stronger effect = lower value; spheroids with HUVEC and MSC.
In the case of `CC1COCCN1c1cc(-c2ccnn2C)c2ccnc(-c3ccn[nH]3)c2n1` (configuration not stated) + Cc1[nH]c2ccc(F)cc2c1-c1nc2c3cccnc3c3ncccc3c2[nH]1, the viability, T/C is 23.2%.

Take `CC1COCCN1c1cc(C2(O)CC3CCC(C2)O3)c2cnn(-c3ccn[nH]3)c2n1` (configuration not stated) + Cc1[nH]c2ccc(F)cc2c1-c1nc2c3cccnc3c3ncccc3c2[nH]1: the viability, T/C was 21.7%.

Take `CC1COCCN1c1cc(C2(S(C)(=N)=O)CC2)nc(-c2ccnc3[nH]ccc23)n1` (configuration not stated) + Cc1[nH]c2ccc(F)cc2c1-c1nc2c3cccnc3c3ncccc3c2[nH]1: the viability, T/C was 96.5%.

For the compound `COc1ccc([C@@H](O)c2cc(-c3ncnc4cc(N5CCOCC5)ccc34)c(F)cc2Cl)nn1` + Cc1[nH]c2ccc(F)cc2c1-c1nc2c3cccnc3c3ncccc3c2[nH]1, the viability, T/C is 87.6%.

The same assay, now with this note: second compound 0.0316 µM; first compound 3.16 µM; stronger effect = lower value; spheroids with HUVEC and MSC.
For the compound `CC1COCCN1c1cc(-c2ccnn2C)c2ccnc(-c3ccn[nH]3)c2n1` (configuration not stated) + Cc1[nH]c2ccc(F)cc2c1-c1nc2c3cccnc3c3ncccc3c2[nH]1, the viability, T/C was 26.3%.

As for `CC1COCCN1c1cc(C2(O)CC3CCC(C2)O3)c2cnn(-c3ccn[nH]3)c2n1` (configuration not stated) + Cc1[nH]c2ccc(F)cc2c1-c1nc2c3cccnc3c3ncccc3c2[nH]1, the viability, T/C was 24.1%.
